21 compounds from ChEMBL document CHEMBL3991601, “The target landscape of clinical kinase drugs” (Science, 2017) can be followed below.

In assay [1] the target is Structural maintenance of chromosomes protein 2 (Homo sapiens, UniProt O95347).
For assay [2], the target named is Protein kinase C beta type (Homo sapiens, UniProt P05771).
In assay [3] the target is ATP-dependent RNA helicase DDX3X (Homo sapiens, UniProt O00571).
The target in assay [4] is Serine/threonine-protein kinase MRCK gamma (Homo sapiens, UniProt Q6DT37).
For assay [5], the target named is Dual specificity tyrosine-phosphorylation-regulated kinase 1A (Homo sapiens, UniProt Q13627).
Assay [6] has as its target T1, Mitogen-activated protein kinase kinase kinase kinase 2 (Homo sapiens, UniProt Q12851).
T1 sequence (Q12851 whole entry): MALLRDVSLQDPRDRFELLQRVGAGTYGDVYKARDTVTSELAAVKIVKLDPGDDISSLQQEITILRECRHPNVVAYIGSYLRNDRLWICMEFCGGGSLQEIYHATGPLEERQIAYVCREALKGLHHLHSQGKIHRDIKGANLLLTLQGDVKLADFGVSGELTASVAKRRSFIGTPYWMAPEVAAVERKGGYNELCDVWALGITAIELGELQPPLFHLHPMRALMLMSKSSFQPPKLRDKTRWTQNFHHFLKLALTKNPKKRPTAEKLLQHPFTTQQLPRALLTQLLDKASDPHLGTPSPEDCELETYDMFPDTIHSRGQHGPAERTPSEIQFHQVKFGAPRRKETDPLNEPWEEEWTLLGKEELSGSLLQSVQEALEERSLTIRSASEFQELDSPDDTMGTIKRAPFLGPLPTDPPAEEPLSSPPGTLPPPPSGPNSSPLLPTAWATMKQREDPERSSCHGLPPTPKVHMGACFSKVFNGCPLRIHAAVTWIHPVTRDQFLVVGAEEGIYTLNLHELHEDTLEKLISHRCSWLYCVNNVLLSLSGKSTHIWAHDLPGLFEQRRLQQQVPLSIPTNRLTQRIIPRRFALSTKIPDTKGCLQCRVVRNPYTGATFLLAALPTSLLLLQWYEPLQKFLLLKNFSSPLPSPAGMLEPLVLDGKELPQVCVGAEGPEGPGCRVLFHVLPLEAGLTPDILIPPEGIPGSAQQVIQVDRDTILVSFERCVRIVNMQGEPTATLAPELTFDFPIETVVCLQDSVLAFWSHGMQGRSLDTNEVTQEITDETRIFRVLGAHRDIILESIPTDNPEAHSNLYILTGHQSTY

For assay [7], the target named is T2, Serine/threonine-protein kinase D2 (Homo sapiens, UniProt Q9BZL6).
T2 sequence (Q9BZL6 whole entry): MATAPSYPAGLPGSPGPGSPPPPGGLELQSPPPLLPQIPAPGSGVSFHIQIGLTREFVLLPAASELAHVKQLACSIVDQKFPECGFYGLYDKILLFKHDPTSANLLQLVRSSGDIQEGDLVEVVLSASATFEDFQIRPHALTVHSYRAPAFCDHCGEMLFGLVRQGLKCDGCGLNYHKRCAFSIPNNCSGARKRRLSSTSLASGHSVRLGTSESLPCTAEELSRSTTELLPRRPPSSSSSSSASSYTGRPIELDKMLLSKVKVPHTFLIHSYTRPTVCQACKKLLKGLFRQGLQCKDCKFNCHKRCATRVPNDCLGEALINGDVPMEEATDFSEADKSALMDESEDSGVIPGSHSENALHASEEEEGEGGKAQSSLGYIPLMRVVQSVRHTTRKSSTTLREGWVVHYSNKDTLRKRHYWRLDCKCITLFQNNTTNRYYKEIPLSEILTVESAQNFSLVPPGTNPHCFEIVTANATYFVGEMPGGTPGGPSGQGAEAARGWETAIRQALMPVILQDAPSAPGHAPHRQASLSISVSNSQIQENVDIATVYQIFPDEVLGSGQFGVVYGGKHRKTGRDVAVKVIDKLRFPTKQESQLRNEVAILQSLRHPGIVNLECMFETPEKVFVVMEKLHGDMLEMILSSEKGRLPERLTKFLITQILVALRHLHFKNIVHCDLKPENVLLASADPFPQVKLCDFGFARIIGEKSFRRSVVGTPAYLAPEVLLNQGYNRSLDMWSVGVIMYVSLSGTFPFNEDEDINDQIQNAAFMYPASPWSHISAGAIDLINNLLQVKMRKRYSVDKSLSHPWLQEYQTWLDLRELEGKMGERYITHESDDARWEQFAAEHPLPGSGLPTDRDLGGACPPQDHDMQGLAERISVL

For assay [8], the target named is Hepatocyte growth factor receptor (Homo sapiens, UniProt P08581).

Calls of active or inactive are those of the source.
Note: in the data inactive means no Kd found up to 30 µM.

Sequence of Hepatocyte growth factor receptor (P08581 whole entry): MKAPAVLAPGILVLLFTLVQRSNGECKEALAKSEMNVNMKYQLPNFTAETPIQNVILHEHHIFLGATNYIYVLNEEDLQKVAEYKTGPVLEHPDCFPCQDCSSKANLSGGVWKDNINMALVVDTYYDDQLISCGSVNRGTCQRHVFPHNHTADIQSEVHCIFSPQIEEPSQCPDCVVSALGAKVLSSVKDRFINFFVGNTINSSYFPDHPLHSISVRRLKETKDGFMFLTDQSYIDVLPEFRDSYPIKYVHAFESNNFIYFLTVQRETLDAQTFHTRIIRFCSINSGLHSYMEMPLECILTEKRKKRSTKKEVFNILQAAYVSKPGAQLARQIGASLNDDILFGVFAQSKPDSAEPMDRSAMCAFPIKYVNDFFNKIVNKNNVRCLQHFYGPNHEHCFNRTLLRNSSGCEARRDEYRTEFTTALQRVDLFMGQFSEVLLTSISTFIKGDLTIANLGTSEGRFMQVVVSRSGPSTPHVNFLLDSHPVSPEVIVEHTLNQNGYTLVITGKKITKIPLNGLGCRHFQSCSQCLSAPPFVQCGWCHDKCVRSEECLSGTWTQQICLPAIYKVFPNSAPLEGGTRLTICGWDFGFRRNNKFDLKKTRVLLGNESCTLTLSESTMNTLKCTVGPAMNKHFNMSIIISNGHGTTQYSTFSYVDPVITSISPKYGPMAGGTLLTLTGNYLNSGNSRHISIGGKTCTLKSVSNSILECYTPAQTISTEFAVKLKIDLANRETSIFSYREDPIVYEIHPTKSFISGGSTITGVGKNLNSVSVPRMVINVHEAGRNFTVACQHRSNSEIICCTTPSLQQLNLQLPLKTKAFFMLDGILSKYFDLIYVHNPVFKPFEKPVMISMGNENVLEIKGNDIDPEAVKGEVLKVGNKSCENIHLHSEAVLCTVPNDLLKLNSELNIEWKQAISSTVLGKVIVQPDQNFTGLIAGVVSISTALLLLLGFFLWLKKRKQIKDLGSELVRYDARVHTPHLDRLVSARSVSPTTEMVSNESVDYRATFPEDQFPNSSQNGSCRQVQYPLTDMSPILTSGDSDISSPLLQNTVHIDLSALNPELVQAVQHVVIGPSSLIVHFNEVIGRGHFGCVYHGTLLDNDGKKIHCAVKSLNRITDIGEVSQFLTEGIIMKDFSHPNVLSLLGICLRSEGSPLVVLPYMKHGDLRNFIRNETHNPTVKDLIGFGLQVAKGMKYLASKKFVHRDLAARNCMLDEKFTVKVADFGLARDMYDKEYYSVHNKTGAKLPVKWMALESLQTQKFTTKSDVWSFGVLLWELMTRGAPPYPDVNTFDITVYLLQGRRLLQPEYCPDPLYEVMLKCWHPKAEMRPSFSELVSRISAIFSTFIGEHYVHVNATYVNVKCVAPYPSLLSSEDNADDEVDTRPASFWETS
Sequence of Structural maintenance of chromosomes protein 2 (O95347 whole entry): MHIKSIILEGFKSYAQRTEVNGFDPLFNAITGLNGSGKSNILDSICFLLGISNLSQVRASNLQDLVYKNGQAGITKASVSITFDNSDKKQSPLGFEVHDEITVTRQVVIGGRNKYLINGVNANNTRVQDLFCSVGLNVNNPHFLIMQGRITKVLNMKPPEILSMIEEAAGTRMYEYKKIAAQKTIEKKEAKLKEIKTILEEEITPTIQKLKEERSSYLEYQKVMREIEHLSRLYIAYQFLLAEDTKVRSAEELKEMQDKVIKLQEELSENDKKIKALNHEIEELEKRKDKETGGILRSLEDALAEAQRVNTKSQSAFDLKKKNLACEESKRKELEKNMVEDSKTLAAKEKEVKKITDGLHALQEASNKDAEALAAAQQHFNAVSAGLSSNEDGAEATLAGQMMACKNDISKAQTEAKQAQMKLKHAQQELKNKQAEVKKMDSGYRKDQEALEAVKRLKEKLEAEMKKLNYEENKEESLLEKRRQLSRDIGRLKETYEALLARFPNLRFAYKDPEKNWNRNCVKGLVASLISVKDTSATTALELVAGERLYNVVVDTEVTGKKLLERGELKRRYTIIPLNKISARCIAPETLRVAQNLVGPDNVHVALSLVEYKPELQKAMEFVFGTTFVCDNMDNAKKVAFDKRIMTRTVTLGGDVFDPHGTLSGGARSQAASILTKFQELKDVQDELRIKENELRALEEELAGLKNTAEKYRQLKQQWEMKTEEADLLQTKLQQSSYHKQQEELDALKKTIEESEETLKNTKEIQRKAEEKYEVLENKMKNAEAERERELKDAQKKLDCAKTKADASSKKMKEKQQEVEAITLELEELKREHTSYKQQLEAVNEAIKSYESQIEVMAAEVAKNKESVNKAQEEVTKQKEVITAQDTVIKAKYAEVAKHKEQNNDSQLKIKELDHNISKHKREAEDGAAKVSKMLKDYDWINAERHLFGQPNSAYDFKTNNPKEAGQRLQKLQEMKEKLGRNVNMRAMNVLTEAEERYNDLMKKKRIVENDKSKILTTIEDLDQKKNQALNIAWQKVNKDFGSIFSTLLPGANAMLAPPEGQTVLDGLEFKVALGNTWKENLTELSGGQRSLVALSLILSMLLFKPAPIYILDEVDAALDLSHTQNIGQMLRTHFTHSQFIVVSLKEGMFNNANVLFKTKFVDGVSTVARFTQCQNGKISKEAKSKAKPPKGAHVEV
Sequence of Protein kinase C beta type (P05771 whole entry): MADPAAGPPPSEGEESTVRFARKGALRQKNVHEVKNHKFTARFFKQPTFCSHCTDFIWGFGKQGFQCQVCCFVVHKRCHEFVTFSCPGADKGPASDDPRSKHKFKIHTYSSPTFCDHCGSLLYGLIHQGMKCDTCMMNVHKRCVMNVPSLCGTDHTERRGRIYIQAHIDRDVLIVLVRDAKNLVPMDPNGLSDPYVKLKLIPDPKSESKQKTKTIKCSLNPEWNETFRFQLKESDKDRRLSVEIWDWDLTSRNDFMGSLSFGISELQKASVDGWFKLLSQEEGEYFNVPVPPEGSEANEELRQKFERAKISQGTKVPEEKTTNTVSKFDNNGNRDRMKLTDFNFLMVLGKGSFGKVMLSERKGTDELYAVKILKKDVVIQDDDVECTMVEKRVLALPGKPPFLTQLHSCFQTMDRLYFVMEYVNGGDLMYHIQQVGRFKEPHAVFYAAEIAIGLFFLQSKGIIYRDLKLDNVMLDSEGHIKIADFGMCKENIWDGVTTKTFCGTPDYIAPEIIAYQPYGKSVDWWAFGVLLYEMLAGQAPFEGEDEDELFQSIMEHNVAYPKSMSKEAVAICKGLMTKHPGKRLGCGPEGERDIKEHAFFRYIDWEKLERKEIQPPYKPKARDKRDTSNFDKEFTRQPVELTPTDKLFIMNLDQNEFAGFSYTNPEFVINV
Sequence of Serine/threonine-protein kinase MRCK gamma (Q6DT37 whole entry): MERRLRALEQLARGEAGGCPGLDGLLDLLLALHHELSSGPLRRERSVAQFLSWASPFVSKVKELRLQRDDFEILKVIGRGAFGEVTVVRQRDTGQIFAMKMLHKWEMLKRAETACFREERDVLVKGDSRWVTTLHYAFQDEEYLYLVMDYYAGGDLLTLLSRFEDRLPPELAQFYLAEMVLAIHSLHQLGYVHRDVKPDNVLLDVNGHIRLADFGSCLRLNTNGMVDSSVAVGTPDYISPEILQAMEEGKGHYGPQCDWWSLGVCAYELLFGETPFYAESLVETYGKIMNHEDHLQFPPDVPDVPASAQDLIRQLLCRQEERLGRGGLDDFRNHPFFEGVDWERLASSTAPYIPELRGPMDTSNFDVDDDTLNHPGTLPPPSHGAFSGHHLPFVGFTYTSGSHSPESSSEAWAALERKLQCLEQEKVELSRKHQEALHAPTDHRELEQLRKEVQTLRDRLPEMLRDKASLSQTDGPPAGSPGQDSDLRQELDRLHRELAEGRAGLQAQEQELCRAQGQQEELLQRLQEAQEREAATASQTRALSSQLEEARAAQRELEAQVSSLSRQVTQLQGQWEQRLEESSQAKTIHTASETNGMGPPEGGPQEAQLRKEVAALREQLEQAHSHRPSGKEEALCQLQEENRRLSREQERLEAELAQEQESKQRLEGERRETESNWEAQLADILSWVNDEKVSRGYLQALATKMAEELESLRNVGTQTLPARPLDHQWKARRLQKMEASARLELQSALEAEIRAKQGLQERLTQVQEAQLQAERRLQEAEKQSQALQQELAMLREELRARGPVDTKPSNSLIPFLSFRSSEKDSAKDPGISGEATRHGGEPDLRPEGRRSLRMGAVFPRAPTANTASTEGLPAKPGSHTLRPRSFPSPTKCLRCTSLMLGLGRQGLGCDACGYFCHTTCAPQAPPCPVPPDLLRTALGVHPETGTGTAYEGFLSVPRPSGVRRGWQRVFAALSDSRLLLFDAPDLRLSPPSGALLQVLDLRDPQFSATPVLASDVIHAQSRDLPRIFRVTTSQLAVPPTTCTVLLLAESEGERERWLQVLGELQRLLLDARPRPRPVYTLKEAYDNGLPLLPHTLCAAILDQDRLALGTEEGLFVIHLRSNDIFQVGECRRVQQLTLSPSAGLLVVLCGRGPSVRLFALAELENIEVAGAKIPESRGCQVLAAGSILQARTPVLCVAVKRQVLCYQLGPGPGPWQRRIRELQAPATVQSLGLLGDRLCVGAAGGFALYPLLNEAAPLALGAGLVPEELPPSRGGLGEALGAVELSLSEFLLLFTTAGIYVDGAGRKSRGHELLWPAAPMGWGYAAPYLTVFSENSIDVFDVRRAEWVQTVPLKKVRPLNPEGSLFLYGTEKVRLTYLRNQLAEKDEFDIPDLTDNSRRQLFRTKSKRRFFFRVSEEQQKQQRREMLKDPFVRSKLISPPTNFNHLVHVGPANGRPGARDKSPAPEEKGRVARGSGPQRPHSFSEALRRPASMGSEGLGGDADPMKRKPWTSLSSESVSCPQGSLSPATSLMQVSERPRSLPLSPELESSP

Consider `COc1cc(Nc2ncc3c(n2)-c2ccc(Cl)cc2C(c2c(F)cccc2OC)=NC3)ccc1C(=O)O` [ALISERTIB], for which the Kd in assay [1], in assay [2], in assay [3] and in assay [4] was > 30 µM (inactive) each time.
In the case of `O=C(Nc1c[nH]nc1-c1nc2cc(CN3CCOCC3)ccc2[nH]1)NC1CC1` [AT-9283], the Kd (usually the constant that tells how readily two partners part at equilibrium) was > 30 µM (inactive) in assay [1]; 3.38 µM (active) in assay [2]; > 30 µM (inactive) in assay [3]; 2.45 µM (active) in assay [5]; > 30 µM (inactive) in assay [6]; > 30 µM (inactive) in assay [4].
In the case of `CNC(=O)c1ccccc1Sc1ccc2c(/C=C/c3ccccn3)n[nH]c2c1` [AXITINIB], the Kd in assay [1], in assay [2] and in assay [3] was > 30 µM (inactive) in each case.
Take `Cc1cc(C(=O)NOCCO)c(Nc2ccc(I)cc2F)n(C)c1=O` [AZD-8330]: the Kd in assay [1], in assay [2], in assay [3], in assay [5], in assay [6] and in assay [4] was > 30 µM (inactive) each time. In addition, the Kd in assay [7] is > 30 µM (inactive).
Take `CC(C)(C)c1nc(-c2cccc(NS(=O)(=O)c3c(F)cccc3F)c2F)c(-c2ccnc(N)n2)s1` [DABRAFENIB]: the Kd in assay [1] was > 30 µM (inactive); in assay [2], > 30 µM (inactive); in assay [3], > 30 µM (inactive); in assay [6], > 30 µM (inactive); in assay [4], > 30 µM (inactive); in assay [7], 0.034 µM (active).
Turning to `Cn1cc(C2=C(c3cn(C4CCN(Cc5ccccn5)CC4)c4ccccc34)C(=O)NC2=O)c2ccccc21` [ENZASTAURIN], the Kd in assay [1] and in assay [3] was > 30 µM (inactive) each time.
In the case of `C[C@@H](Oc1cc(-n2cnc3ccc(CN4CCN(C)CC4)cc32)sc1C(N)=O)c1ccccc1C(F)(F)F` [GSK-461364], the Kd in assay [1], in assay [2] and in assay [3] was > 30 µM (inactive) throughout.
On to `CCn1cc(-c2ccnc3[nH]c(-c4cccc(CN(C)C)c4)cc23)c(-c2ccc(NC(=O)N(C)C)cc2)n1` [GSK-1070916], for which the Kd in assay [1], in assay [2], in assay [3], in assay [5], in assay [8] and in assay [6] was > 30 µM (inactive) throughout.
Turning to `O=C(Nc1cc(C(F)(F)F)cc(C(F)(F)F)c1)c1cc(Cl)ccc1O` [IMD-0354], the Kd in assay [1], in assay [2], in assay [3], in assay [5], in assay [8] and in assay [6] was > 30 µM (inactive) each time. Also, the Kd in assay [4] was > 30 µM (inactive).
Take `CNC(=O)c1nn(C)c2c1C(C)(C)Cc1cnc(Nc3ccc(N4CCN(C)CC4)cc3)nc1-2` [MILCICLIB]: the Kd is > 30 µM (inactive) in assay [1]; > 30 µM (inactive) in assay [2]; > 30 µM (inactive) in assay [3]; 0.105 µM (active) in assay [5]; 14 µM (active) in assay [6]; > 30 µM (inactive) in assay [4]. Moreover, in assay [7], the Kd is 0.143 µM (active).
As for `Cn1cc(-c2cnc3ccc4ccc(CS(=O)(=O)NCc5ccccn5)cc4c(=O)c3c2)cn1` [MK-8033], the Kd in assay [1], in assay [2], in assay [3], in assay [5], in assay [6] and in assay [4] was > 30 µM (inactive) in each case. Also, the Kd in assay [7] was > 30 µM (inactive).
Consider `COc1ncc(-c2ccc3nccc(-c4ccnnc4)c3c2)cc1NS(=O)(=O)c1ccc(F)cc1F` [OMIPALISIB], for which the Kd in assay [1], in assay [2], in assay [3], in assay [5], in assay [6] and in assay [4] was > 30 µM (inactive) in each case. Further, the Kd in assay [7] was > 30 µM (inactive).
As for `Cc1[nH]c(/C=C2\C(=O)Nc3ccccc32)c(C)c1CCC(=O)O` [ORANTINIB], the Kd in assay [1], in assay [2], in assay [3] and in assay [4] was > 30 µM (inactive) each time.
`NC(=O)c1c(OCc2c(F)cc(Br)cc2F)nsc1NC(=O)NCCCCN1CCCC1` [OSI-632]: the Kd in assay [1], in assay [2], in assay [3] and in assay [4] was > 30 µM (inactive) each time.
For `CCOc1cc2ncc(C#N)c(Nc3ccc(F)c(Cl)c3)c2cc1NC(=O)/C=C/CN(C)C` [PELITINIB], the Kd in assay [1] is > 30 µM (inactive); in assay [2] it was > 30 µM (inactive); in assay [3], > 30 µM (inactive); in assay [5], > 30 µM (inactive); in assay [6], 2.28 µM (active); in assay [4], > 30 µM (inactive). Also, the Kd in assay [7] is > 30 µM (inactive).
As to `CCCCCCCCCCCCCCCCCCOP(=O)([O-])OC1CC[N+](C)(C)CC1` [PERIFOSINE], the Kd in assay [1], in assay [2], in assay [3], in assay [5], in assay [6] and in assay [7] was > 30 µM (inactive) throughout.
Regarding `Cc1nc(Nc2n[nH]c3c2CN(C(=O)N[C@H](CN(C)C)c2ccccc2)C3(C)C)c2sccc2n1` [PF-03758309], the Kd in assay [1] is > 30 µM (inactive); in assay [2], 5.89 µM (active); in assay [3], > 30 µM (inactive); in assay [5] it was > 30 µM (inactive); in assay [8] it was > 30 µM (inactive); in assay [6], > 30 µM (inactive). For the same compound, the Kd in assay [4] is > 30 µM (inactive).
Consider `CC(=O)NCC(=O)N1[C@@H]2CC[C@H]1c1ccc(Nc3ncc(C(F)(F)F)c(NC4CCC4)n3)cc12` [PF-03814735], for which the Kd in assay [1], in assay [2], in assay [3] and in assay [4] was > 30 µM (inactive) each time.
Consider `O=C(NOCCO)c1cc(CN2OCCCC2=O)c(F)c(F)c1Nc1ccc(I)cc1F` [RO-4987655], for which the Kd in assay [1], in assay [2] and in assay [3] was > 30 µM (inactive) each time.
Take `N#CC[C@H](C1CCCC1)n1cc(-c2ncnc3[nH]ccc23)cn1` [RUXOLITINIB]: the Kd in assay [1], in assay [2] and in assay [3] was > 30 µM (inactive) throughout.
As to `Cn1ncc(Cl)c1-c1cc(C(=O)N[C@H](CN)Cc2ccc(F)c(F)c2)oc1Cl` [UPROSERTIB], the Kd is > 30 µM (inactive) in assay [1]; > 30 µM (inactive) in assay [3]; 0.238 µM in assay [5]; > 30 µM (inactive) in assay [8]; > 30 µM (inactive) in assay [6]; > 30 µM (inactive) in assay [4].
